# In US8569450B2, “CD3 epsilon immunogens and antibodies” (Health Research Inc., priority 2010, dated 2013):
# System: anti-human detection antibody
# Assay: CD3ε peptide ELISA, alkaline phosphatase based, peptides coated on Costar high binding plates
# Parameters: species or system chicken
# Details: single peptide coated on plate, plate blank subtracted, both peptides tested under the same conditions
# Text: The capture antibody of the CDR assay was produce by inoculation with 2 peptides. The sequence of these two peptides is AKAKPVTRGAGA (SEQ ID NO: 1) and LYSGLNQRRI (SEQ ID NO: 2) respectively. To determine the key immune-dominate region of the peptide, 12 variants of original peptide 1 (SEQ ID NO: 1) and 10 variants of original peptide 2 (SEQ ID NO: 2) were made with alanine substitution (or valine when alanine is the original amino acid). These were produced by GenScript, shipped, in solid form, at room temperature, to our lab and were dissolved in 1 ml of 0.05 TBS buffer.
# Single peptides were coated on to Costar high binding 96 well plates at a concentration of 10 μg and 2 μg in 0.05 TBS buffer pH 7.4 in quadruplicate and tested in an alkaline phoshotase based ELISA. Plate blanks were subtracted from the optical densities obtained for each peptide. The peptides are compared to the original by percent of original signal. As noted in Table 1 the twelfth substitution was both an alanine at position twelve and a glutamic acid for threonine at position seven. This was an inadvertent oversight by the manufacturer.
# The results from using a coating concentration of 2 μg/ml were similar.
# The OD for original peptide 1 (SEQ ID NO: 1) was 1.5 and peptide 2 (SEQ ID NO: 2) elicited a signal of 1.0 when tested under the same conditions.
row,OD (optical density) by ELISA,Sequence
1,1.5,"AKAKPVTRGAGA (listed as Homo sapiens) [original peptide 1, CD3 epsilon immunogen peptide, 12AA]"
2,1.0,"LYSGLNQRRI (listed as Homo sapiens) [peptide 2, CD3 epsilon immunogen peptide, 10AA]"
